# Laboratory results published in PMC11939078, “TAK-994 mechanistic investigation into drug-induced liver injury” (Toxicological Sciences, 2025).
# Experiments:
# human hepatocytes = experiment: Covalent binding of [14C]TAK-994 in human hepatocytes and CVB burden; assay type: in vitro ADME; conditions: for Daily CVB burden: most conservative values based on internal assay data (Table 1); for CVB burden: fa and fm assumed 1 (Table 3)
# Method: Covalent binding of TAK-994 was assessed by incubating [^14C]TAK-994 with human hepatocytes. The CVB level was determined by relating the total amount of radioactivity (pmol equivalent) to the protein concentration in each sample. Assessment of TAK-994 inhibition potential for the bile salt efflux pump (BSEP) was assessed by incubating [^3H(G)]taurocholic acid with TAK-994 (0 to 100 μM/l) or cyclosporin A after addition of 10 μl of membrane vesicles expressing BSEP or control membrane vesicles. Scintillation counts were assessed in two 5-min cycles.
# [^14C ]TAK-994 (10 μmol/L, supplied by Takeda Pharmaceutical Company Limited, Japan) was incubated with human hepatocytes (LIVERPOOL® 10-donor mixed gender, pooled, cryopreserved human hepatocytes [Lot No. ZOL, BioIVT]) as suspension culture in 24-well plates at 37°C under 5% CO2, humidified, for 0 or 2 hours. Seeding density of the cells was 3.0 × 10^5 viable cells/500 μL/well. A total of 3 replicates were assessed.
# The covalent-binding (CVB) level was determined by relating the total amount of radioactivity (pmol equivalent) to the protein concentration in each sample. To obtain the net covalent-binding (CVBnet), the average result of the “back-added” samples (CVBback) was subtracted from the average result of the incubated samples (CVBinc). For the determination of [^14C ]TAK-994 turnover in the incubation, part of the samples were analyzed by high-performance liquid chromatography with an online flow scintillation analyzer.
# Turnover = 1 − [percentage of TAK-994 relative to the total radioactivity at 2 hours] [percentage of TAK-994 relative to the total radioactivity at 0 hour]
# fcvb = CVB (pmol/mg protein) × [mean protein concentration (mg/well)] turnover × [substrate concentration (pmol/well)]
# CVB burden (mg) = D × fa × fm × fcvb
# D was set to 60, 180, 240, and 360 mg. Both fa and fm were set to a value of 1 (Thompson et al. 2012).
# [1] = tested on: PXB cells (human hepatocytes); experiment: CLF efflux (bile transport) assay in PXB cells; assay type: cell-based; conditions: n = 3
# Method: Cholyl-lysyl-fluorescein (CLF) efflux for TAK-994 was assessed using human hepatocytes implanted into PXB-mice. PXB cells were exposed to TAK-994 (0.3, 1, 3, 10, 30, and 100 μM) or vehicle for 2 h and then incubated for an additional 30 min with TAK-994 or vehicle containing 5 μM CLF. CLF efflux and its inhibition by TAK-994 were assessed by fluorescence analysis.
# PXB hepatocytes were generated by implanting human hepatocytes into PXB-mice®. These hepatocytes were isolated by collagenase perfusion at PhoenixBio Co Ltd. Freshly isolated hepatocytes were maintained in T-75 flasks and detached using 0.25% trypsin/ethylenediaminetetraacetic acid (EDTA) incubation for 20 minutes (total) using the following procedure. A flash wash was performed with cold trypsin/EDTA, followed by a 5-minute incubation with cold trypsin/EDTA at 37°C, and finally a 15-minute incubation at 37°C with trypsin/EDTA. […]
# On Day 8, PXB cells were exposed to TAK-994 (0.3, 1, 3, 10, 30, and 100 μM) or 0.1% DMSO for 2 hours and then incubated for an additional 30 minutes with TAK-994 or […] containing 5 μM CLF. […] The CLF efflux and its inhibition by TAK-994 was quantified using Developer toolbox software. […] The fluorescent intensities of bile canalicular regions were measured to determine the IC50 for TAK-994 CLF efflux inhibition. […]
# patients with narcolepsy = conditions: in vivo
# Rat = Rat 26-week oral gavage toxicity study; assay type: in vivo; conditions: for Histopathological Liver Findings / ALT / AST / GLDH: rat 26-week; for ALT / AST / GLDH: mean (SD)
# From the text: TAK-994 performed well in tiered safety screening assays, with wide margins between in vitro IC50 and the predicted efficacious exposures (Table 1). […] Based on the safety profiles observed in these animal studies, TAK-994 progressed into phase I clinical trials.
# ^aAll dose levels had 15 animals per sex. No statistical difference was observed between the TAK-994 and control groups.
structure (smiles),measurement,setting,value
CC(C)(O)C(=O)N1CC[C@H](NS(C)(=O)=O)[C@@H]1Cc1cccc(-c2cc(F)cc(F)c2)c1F.CC(C)(O)C(=O)N1CC[C@H](NS(C)(=O)=O)[C@@H]1Cc1cccc(-c2cc(F)cc(F)c2)c1F.O.O.O [TAK-994],Daily CVB burden,human hepatocytes; 90 mg BID,25.1 mg
same,Daily CVB burden,human hepatocytes; 180 mg BID,50.2 mg
same,CVB level,human hepatocytes; 2-h incubation of human hepatocytes with TAK-994 at 10 μM,389.2 pmol equivalent/mg protein
same,CVB burden,human hepatocytes; daily dose 60 mg (30 BID),2.94 mg
same,CVB burden,human hepatocytes; daily dose 180 mg (90 BID),8.82 mg
same,CVB burden,human hepatocytes; daily dose 240 mg (120 BID),11.8 mg
same,CVB burden,human hepatocytes; daily dose 360 mg (180 BID),17.6 mg
same,f CVB (fraction of metabolism leading to covalent binding),"human hepatocytes; human hepatocytes, 10 μM, 2 h",0.0490
same,IC50,[1],30 µM
same,onset of earliest Hy's Law case,patients with narcolepsy,50 days
same,Histopathological Liver Findings,"Rat; female, 50 mg/kg",No adverse findings
same,ALT,"Rat; female, 50 mg/kg",35 (12) IU/L
same,AST,"Rat; female, 50 mg/kg",64 (38) IU/L
same,GLDH,"Rat; female, 50 mg/kg",41 (78) IU/L
same,Histopathological Liver Findings,"Rat; female, 150 mg/kg",No adverse findings
same,ALT,"Rat; female, 150 mg/kg",37 (8) IU/L
same,AST,"Rat; female, 150 mg/kg",53 (13) IU/L
same,GLDH,"Rat; female, 150 mg/kg",12 (14) IU/L
same,Histopathological Liver Findings,"Rat; female, 1000 mg/kg",No adverse findings
same,ALT,"Rat; female, 1000 mg/kg",44 (14) IU/L
same,AST,"Rat; female, 1000 mg/kg",51 (6) IU/L
same,GLDH,"Rat; female, 1000 mg/kg",6 (4) IU/L
same,Histopathological Liver Findings,"Rat; male, 50 mg/kg",No adverse findings
same,ALT,"Rat; male, 50 mg/kg",29 (6) IU/L
same,AST,"Rat; male, 50 mg/kg",53 (8) IU/L
same,GLDH,"Rat; male, 50 mg/kg",12 (8) IU/L
same,Histopathological Liver Findings,"Rat; male, 150 mg/kg",No adverse findings
same,ALT,"Rat; male, 150 mg/kg",38 (31) IU/L
same,AST,"Rat; male, 150 mg/kg",53 (11) IU/L
same,GLDH,"Rat; male, 150 mg/kg",12 (7) IU/L
same,Histopathological Liver Findings,"Rat; male, 1000 mg/kg",No adverse findings
same,ALT,"Rat; male, 1000 mg/kg",31 (7) IU/L
same,AST,"Rat; male, 1000 mg/kg",50 (11) IU/L
same,GLDH,"Rat; male, 1000 mg/kg",7 (4) IU/L
same,"adverse liver findings, chronic dose toxicity study","Rat; rats, 6-mo, up to the high dose tested of 1,000 mg/kg",no adverse liver findings
